System: NCI-H211 complex spheroid viability
Experiment: Anticancer human tumor NCI-H211 cell line growth inhibition [LSD1];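 note: luminescent viability read after seven days of drug exposure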;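 for viability, T/C: 100% = DMSO vehicle control viability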
Conditions: for IC50: curve of first compound; for viability, T/C: stronger effect = lower value
Outline: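 Drug combinations with the LSD1 inhibitor iadademstat tested on tumor cells co-cultured as spheroids with endothelial cells and mesenchymal stem cells. Concentrations descended in half-log increments from clinical Cmax or 10 microM.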

[1] = second compound 0.1 µM, first compound 0.000316 µM
[2] = second compound 0.1 µM, first compound 0.001 µM
[3] = second compound 0.1 µM, first compound 0.00316 µM
[4] = second compound 0.1 µM, first compound 0.01 µM
[5] = second compound 0.1 µM, first compound 0.0316 µM
[6] = second compound 0.1 µM, first compound 0.1 µM
[7] = second compound 0.316 µM, first compound 0.000316 µM
[8] = second compound 0.316 µM, first compound 0.001 µM
[9] = second compound 0.316 µM, first compound 0.00316 µM
[10] = second compound 0.316 µM, first compound 0.01 µM
[11] = second compound 0.316 µM, first compound 0.0316 µM
[12] = second compound 0.316 µM, first compound 0.1 µM
[13] = second compound 1 µM, first compound 0.000316 µM
[14] = second compound 1 µM, first compound 0.001 µM
[15] = second compound 1 µM, first compound 0.00316 µM
[16] = second compound 1 µM, first compound 0.01 µM
[17] = second compound 1 µM, first compound 0.0316 µM
[18] = second compound 1 µM, first compound 0.1 µM
[19] = second compound 3.16 µM, first compound 0.000316 µM
[20] = second compound 3.16 µM, first compound 0.001 µM
[21] = second compound 3.16 µM, first compound 0.00316 µM
[22] = second compound 3.16 µM, first compound 0.01 µM
[23] = second compound 3.16 µM, first compound 0.0316 µM
[24] = second compound 3.16 µM, first compound 0.1 µM
[25] = second compound 10 µM, first compound 0.000316 µM
[26] = second compound 10 µM, first compound 0.001 µM
[27] = second compound 10 µM, first compound 0.00316 µM
[28] = second compound 10 µM, first compound 0.01 µM
[29] = second compound 10 µM, first compound 0.0316 µM
[30] = second compound 10 µM, first compound 0.1 µM

Structure (SMILES)	IC50 (second compound 0.1 µM) [nM]	IC50 (second compound 0.316 µM) [nM]	IC50 (second compound 1 µM) [nM]	IC50 (second compound 3.16 µM) [nM]	IC50 (second compound 10 µM) [nM]	viability, T/C [3] [%]	viability, T/C [4] [%]	viability, T/C [5] [%]	viability, T/C [6] [%]	viability, T/C [9] [%]	viability, T/C [10] [%]	viability, T/C [11] [%]	viability, T/C [12] [%]	viability, T/C [15] [%]	viability, T/C [16] [%]	viability, T/C [17] [%]	viability, T/C [18] [%]	viability, T/C [21] [%]	viability, T/C [22] [%]	viability, T/C [23] [%]	further results
CC(C)CC(NC(=O)C(Cc1ccccc1)NC(=O)c1cnccn1)B(O)O (stereo not given) + NC1CC1c1ccc(-c2cccc(O)c2)cc1	3.45	3.26	2.99	3.46	1.78	54.1	1.17	0.06	0.19	51.4	1.97	0.17	0.17	47.8	0.86	0.09	0.18	54.2	1.3	0.09	viability, T/C [1]: 112%; viability, T/C [2]: 108%; viability, T/C [7]: 107%; viability, T/C [8]: 119%; viability, T/C [13]: 83.4%; viability, T/C [14]: 104%; viability, T/C [19]: 81.2%; viability, T/C [20]: 102%; viability, T/C [24]: 0.19%; viability, T/C [25]: 70.8%; viability, T/C [26]: 74.1%; viability, T/C [27]: 27.7%; viability, T/C [28]: 0.47%; viability, T/C [29]: 0.18%; viability, T/C [30]: 0.27%
CC(C)CC(NC(=O)CNC(=O)c1cc(Cl)ccc1Cl)B1OC(=O)CC(CC(=O)O)(C(=O)O)O1 (stereo not given) + NC1CC1c1ccc(-c2cccc(O)c2)cc1	15.4	16	14.9	13.9	7.26	82.2	61.9	29.3	5.5	97.5	61.6	30	5.69	96.7	57.4	27.8	4.52	93.4	56.5	24.5	viability, T/C [1]: 90.8%; viability, T/C [2]: 76.5%; viability, T/C [7]: 91.6%; viability, T/C [8]: 102%; viability, T/C [13]: 74.5%; viability, T/C [14]: 83.2%; viability, T/C [19]: 75.3%; viability, T/C [20]: 82.8%; viability, T/C [24]: 4.84%; viability, T/C [25]: 71%; viability, T/C [26]: 70.3%; viability, T/C [27]: 98.3%; viability, T/C [28]: 38.5%; viability, T/C [29]: 17.4%; viability, T/C [30]: 2.36%
COc1cc(Nc2ncc3c(n2)-c2ccc(Cl)cc2C(c2c(F)cccc2OC)=NC3)ccc1C(=O)O + NC1CC1c1ccc(-c2cccc(O)c2)cc1	< 3.16	< 3.16	< 3.16	< 3.16	< 3.16	28.2	5.72	4.04	3.29	37.7	6.96	3.41	4.23	33.4	6.82	3.89	4.49	21.8	7.56	4.05	viability, T/C (second compound 0.1 µM, first compound 0.316 µM): 4.66%; viability, T/C (second compound 0.1 µM, first compound 1 µM): 3.94%; viability, T/C (second compound 0.316 µM, first compound 0.316 µM): 4.53%; viability, T/C (second compound 0.316 µM, first compound 1 µM): 3.46%; viability, T/C (second compound 1 µM, first compound 0.316 µM): 3.81%; viability, T/C (second compound 1 µM, first compound 1 µM): 3.95%; viability, T/C [24]: 3.76%; viability, T/C (second compound 3.16 µM, first compound 0.316 µM): 3.87%; viability, T/C (second compound 3.16 µM, first compound 1 µM): 3.54%; viability, T/C [27]: 21.8%; viability, T/C [28]: 6.88%; viability, T/C [29]: 4.59%; viability, T/C [30]: 4.93%; viability, T/C (second compound 10 µM, first compound 0.316 µM): 5.57%; viability, T/C (second compound 10 µM, first compound 1 µM): 4.21%
